Laboratory results: the Deep4Chem optical property database

Experiment: solvent given as SMILES

Compound: COC(=O)c1c(C(=O)OC)c2ccc(C)nn2c1C
- fluorescence lifetime (in CCCCCC): 14.1 ns

Compound: CCCCCCC(CCCCCC)N1C(=O)c2cccc3c(-c4cc(OC)c(OC)c(OC)c4)ccc(c23)C1=O
- fluorescence lifetime (in CCCCCC): 2.03 ns
- fluorescence lifetime (in CCCCCCCCCCCCCC): 2.78 ns
- fluorescence lifetime (in CCCCCCCCCCCO): 1.75 ns
- fluorescence lifetime (in CCCCO): 0.208 ns
- fluorescence lifetime (in CN(C)C=O): 0.119 ns
- fluorescence lifetime (in Cc1ccccc1): 5.4 ns
- fluorescence lifetime (in ClC(Cl)Cl): 6.62 ns

Compound: CCCn1c2cccc3c2[c+]2c4c1cccc4n(CCC)c1cccc(c12)n3CCC
- fluorescence lifetime (in CC#N): 7.5 ns
- fluorescence lifetime (in CO): 9.9 ns
- fluorescence lifetime (in ClCCl): 6.3 ns
- fluorescence lifetime (in OCC(O)CO): 11 ns

Compound: CCCCCCCCCCCCN1C(=O)c2c(c3ccc4cc(-c5ccc(-c6ccccc6)cc5)c(OC)cc4c3c3c2ccc2cc(-c4ccc(-c5ccccc5)cc4)c(OC)cc23)C1=O
- fluorescence lifetime (in ClCCl): 6.19 ns

Compound: CCN(CC)c1ccc2c(c1)C(C)(C)C(=O)C=C2
- fluorescence lifetime (in O): 2.56 ns

Compound: c1ccc(-c2ccc(-c3ccc(-c4ccccc4)cc3)cc2)cc1
- fluorescence lifetime (in C1CCCCC1): 0.8 ns
- fluorescence lifetime (in C1CCOC1): 1 ns

Compound: COc1ccc(-c2c3ccccc3c(-c3ccc(OC)cc3)c3cc4ccccc4cc23)cc1
- fluorescence lifetime (in ClCCl): 12.1 ns

Compound: COC(=O)C(NC(=O)OC(C)(C)C)c1ccc2oc(-c3cc(OC)c(OC)c(OC)c3)nc2c1 (stereo not drawn)
- fluorescence lifetime (in CC1CCCCC1): 1.01 ns
- fluorescence lifetime (in CC#N): 1.2 ns
- fluorescence lifetime (in CO): 1.28 ns

Compound: CC1(C)[C@@H]2[C@@H]1[C@]1(c3ccccc3)N=NC2(c2ccccc2)C2C3C=CC(C3)C21 (stereo partly drawn)
- fluorescence lifetime (in CC#N): 402 ns

Compound: COc1ccc(C#Cc2c3ccccc3c(C#Cc3ccc(OC)cc3)c3cc4ccccc4cc23)cc1
- fluorescence lifetime (in ClCCl): 7 ns

Compound: Cc1cc(C)c(B(c2ccc(-n3c4ccccc4c4ccccc43)cc2)c2c(C)cc(C)cc2C)c(C)c1
- fluorescence lifetime (in Cc1ccccc1): 3.7 ns

Compound: CC1(C)CC(/N=C/c2ccc3ccc4cccc5ccc2c3c45)CC(C)(C)N1
- fluorescence lifetime (in C1CCCCC1): 7.3 ns
- fluorescence lifetime (in CC#N): 2.9 ns
- fluorescence lifetime (in CO): 2.6 ns
- fluorescence lifetime (in ClC(Cl)Cl): 0.3 ns

Compound: O=C(O)c1ccc(-c2nc(-c3ccccc3)c3c4ccccc4ccn23)cc1
- fluorescence lifetime (in CC#N): 2.5 ns

Compound: CC(C)(C)c1ccc(Oc2cc3c4c(cc(Oc5ccc(C(C)(C)C)cc5)c5c6c(Oc7ccc(C(C)(C)C)cc7)cc7c8c(cc(Oc9ccc(C(C)(C)C)cc9)c(c2c45)c86)C(=O)N(Cc2ccccc2)C7=O)C(=O)N(Cc2ccccc2)C3=O)cc1
- fluorescence lifetime (in ClC(Cl)Cl): 6.3 ns

Compound: N#Cc1cc(N2c3ccccc3Oc3ccccc32)c(N2c3ccccc3Oc3ccccc32)cc1C#N
- fluorescence lifetime (in c1ccc2c(c1)c1ccccc1n2-c1ccc(-c2ccc(-n3c4ccccc4c4ccccc43)cc2)cc1): 20 ns

Compound: C[Si]1(C)c2cc(-c3ccc(-c4cccs4)s3)ccc2C=Cc2ccc(-c3ccc(-c4cccs4)s3)cc21
- fluorescence lifetime (in ClCCl): 0.94 ns

Compound: CCC12C(=C3C(=C4c5ccc(-c6ccc(CO)cc6)cc5S(=O)(=O)C41CC)C(F)(F)C(F)(F)C3(F)F)c1ccc(-c3ccc(CO)cc3)cc1S2(=O)=O (stereo not drawn)
- fluorescence lifetime (in C1COCCO1): 2.9 ns

Compound: COc1ccc(-c2c3ccccc3c(C#Cc3ccccc3)c3cc4ccccc4cc23)cc1
- fluorescence lifetime (in ClCCl): 9.7 ns

Compound: CC(C)(C)c1ccc(C(C)(C)C)c(N2C(=O)c3cccc4c(-c5ccc(-c6ccc(N(c7ccccc7)c7ccccc7)cc6)s5)ccc(c34)C2=O)c1
- fluorescence lifetime (in Cc1ccccc1): 2.6 ns

Compound: CC(C)(C)[Si](C)(C)c1ccc([Si](C)(C)C(C)(C)C)c2ccccc12
- fluorescence lifetime (in C1CCCCC1): 12 ns

Compound: CCN(CC)c1ccc(/C=C/c2ccc(-c3ccc(/C=C/c4ccc(N(CC)CC)cc4)s3)s2)cc1
- fluorescence lifetime (in C1CCOC1): 1.1 ns
- fluorescence lifetime (in CC#N): 1.14 ns
- fluorescence lifetime (in CC(C)=O): 1.11 ns
- fluorescence lifetime (in CN(C)C=O): 1.18 ns
- fluorescence lifetime (in Cc1ccccc1): 1.02 ns

Compound: CCCCCCCCCCCCNc1cccc2[n+]1[B-](F)(F)n1c(c3cccc4cccc1c43)=N2
- fluorescence lifetime (in ClCCl): 2.5 ns

Compound: CC(C)(C)c1ccc2c(c1)c1cc(C(C)(C)C)ccc1n2-c1ccc(C#Cc2ccccc2)cc1
- fluorescence lifetime (in CC#N): 4.75 ns
- fluorescence lifetime (in CCCCC): 2.07 ns
- fluorescence lifetime (in CO): 4.99 ns
- fluorescence lifetime (in Cc1ccccc1): 1.77 ns
- fluorescence lifetime (in ClC(Cl)Cl): 2.39 ns
- fluorescence lifetime (in ClCCl): 3.91 ns

Compound: Cc1cccc2[n+]1[B-](F)(F)n1c(c3cccc4cccc1c43)=N2
- fluorescence lifetime (in ClCCl): 7.1 ns

Compound: CCN(CC)c1ccc2c(-c3ccccc3C(=O)O)c3c([o+]c2c1)/C(=C/C=C/c1ccc(N(C)C)cc1)CCC3
- fluorescence lifetime (in ClCCl): 1.03 ns

Compound: C=Cc1ccc(OC)cc1
- fluorescence lifetime (in C1CCCCC1): 6.6 ns
- fluorescence lifetime (in CC#N): 6.3 ns

Compound: Cc1ccc2nc3c(nc2c1)c(-c1ccccc1)nn3C
- fluorescence lifetime (in C1CCCCC1): 9.32 ns
- fluorescence lifetime (in C1CCOC1): 23.6 ns
- fluorescence lifetime (in CC#N): 19.8 ns

Compound: C(=C\c1nc(/C=C/c2ccc(-n3c4ccccc4c4ccccc43)cc2)nc(/C=C/c2ccc(-n3c4ccccc4c4ccccc43)cc2)n1)/c1ccc(-n2c3ccccc3c3ccccc32)cc1
- fluorescence lifetime (in C1CCOC1): 3.31 ns
- fluorescence lifetime (in CC#N): 2.03 ns
- fluorescence lifetime (in Cc1ccccc1): 3.87 ns
- fluorescence lifetime (in ClCCl): 4.03 ns
